Measured values taken from patent publication US20100061928A1, “LABELLED ANALOGUES OF HALOBENZAMIDES AS RADIOPHARMACEUTICALS” (Institut National De La Sante et De La Recherche Medicale …, priority 2006, published 2010).
Where a name gives a salt, the structure may show the parent alone.

Experiments:
[1] = test system: grafted B16 F0 murine melanoma tumour; assay: Biodistribution of the ^125I-labelled molecules in the melanoma-bearing mouse (autoradiography of whole-body sections); details: for Biodistribution, Mean, B 16: B 16 tumour
[2] = Elimination of the molecules: cumulative urinary and faecal excretion 0-72 hours; format: in vivo, mouse
tumour = assay: Dosimetry with regard to the tumour (MIRD programme, extrapolated to ^131I)

For `CCN(CC)CCNC(=O)c1c[nH]c2ccc(I)cc2c1=O` [compound 35, N-(2-diethylaminoethyl)-1,4-dihydro-6-iodo-4-oxoquinoline-3-carboxamide dihydrochloride], the “Biodistribution, Mean, B 16” value ([1]; 1 H) was 4.69, the “Biodistribution, Mean, B 16” value ([1]; 3 H) was 4.05 and the “Biodistribution, Mean, B 16” value ([1]; 6 H) was 5.81. The “Biodistribution, Mean, B 16” value ([1]; 24 H) was 2.74, the “Biodistribution, Mean, B 16” value ([1]; 72 H) was 2.35 and the “Biodistribution, Mean, Ic” value ([1]; 1 H) was 52.94. For the same compound, the “Biodistribution, Mean, Ic” value ([1]; 3 H) was 90.12, the “Biodistribution, Mean, Ic” value ([1]; 6 H) was 61.06 and the “Biodistribution, Mean, Ic” value ([1]; 24 H) was 1.62. For the same compound, the “Biodistribution, Mean, Ic” value ([1]; 72 H) was 0.70, the “Biodistribution, Mean, Sc” value ([1]; 1 H) was 12.74 and the “Biodistribution, Mean, Sc” value ([1]; 3 H) was 9.93. The “Biodistribution, Mean, Sc” value ([1]; 6 H) was 22.27, the “Biodistribution, Mean, Sc” value ([1]; 24 H) was 0.13 and the “Biodistribution, Mean, blood” value ([1]; 1 H) was 0.42. For the same compound, the “Biodistribution, Mean, blood” value ([1]; 3 H) was 0.23, the “Biodistribution, Mean, blood” value ([1]; 6 H) was 0.17 and the “Biodistribution, Mean, blood” value ([1]; 24 H) was 0.22. The “Biodistribution, Mean, brain” value ([1]; 1 H) was 0.07, the “Biodistribution, Mean, brain” value ([1]; 6 H) was 0.08 and the “Biodistribution, Mean, brain” value ([1]; 24 H) was 0.04. The “Biodistribution, Mean, brain” value ([1]; 72 H) was 0.10, the “Biodistribution, Mean, kidney” value ([1]; 1 H) was 2.80 and the “Biodistribution, Mean, kidney” value ([1]; 3 H) was 0.80. The “Biodistribution, Mean, kidney” value ([1]; 6 H) was 0.20, the “Biodistribution, Mean, kidney” value ([1]; 24 H) was 0.03 and the “Biodistribution, Mean, liver” value ([1]; 1 H) was 5.16. The “Biodistribution, Mean, liver” value ([1]; 3 H) was 1.84, the “Biodistribution, Mean, liver” value ([1]; 6 H) was 0.32 and the “Biodistribution, Mean, liver” value ([1]; 24 H) was 0.07. The “Biodistribution, Mean, lungs” value ([1]; 1 H) was 2.06, the “Biodistribution, Mean, lungs” value ([1]; 3 H) was 0.88 and the “Biodistribution, Mean, lungs” value ([1]; 6 H) was 0.15. For the same compound, the “Biodistribution, Mean, lungs” value ([1]; 24 H) was 0.04, the “Biodistribution, Mean, muscle” value ([1]; 1 H) was 0.92 and the “Biodistribution, Mean, muscle” value ([1]; 3 H) was 0.13. For the same compound, the “Biodistribution, Mean, muscle” value ([1]; 6 H) was 0.01, the “Biodistribution, Mean, pancreas” value ([1]; 1 H) was 5.74 and the “Biodistribution, Mean, pancreas” value ([1]; 3 H) was 0.96. The “Biodistribution, Mean, pancreas” value ([1]; 6 H) was 1.08, the “Biodistribution, Mean, spleen” value ([1]; 1 H) was 1.24 and the “Biodistribution, Mean, spleen” value ([1]; 3 H) was 0.28. The “Biodistribution, Mean, spleen” value ([1]; 6 H) was 0.26, the “Biodistribution, Mean, spleen” value ([1]; 24 H) was 0.15 and the “Biodistribution, Mean, thyroid” value ([1]; 3 H) was 4.33. The “Biodistribution, Mean, thyroid” value ([1]; 6 H) was 8.55, the “Biodistribution, Mean, thyroid” value ([1]; 24 H) was 5.09 and the “Biodistribution, Mean, thyroid” value ([1]; 72 H) was 9.83. For the same compound, the “Biodistribution, Mean, uvea” value ([1]; 1 H) was 5.12, the “Biodistribution, Mean, uvea” value ([1]; 3 H) was 5.66 and the “Biodistribution, Mean, uvea” value ([1]; 6 H) was 5.18. For the same compound, the “Biodistribution, Mean, uvea” value ([1]; 24 H) was 3.5, the “Biodistribution, Mean, uvea” value ([1]; 72 H) was 6.79 and the “Faecal elimination 0-72 hours (Faeces)” value ([2]; cumulative excretion 0-72 hours, faeces, mice in metabolic cages) was 69.2%. The “Urinary and faecal elimination 0-72 hours (Total)” value ([2]; cumulative excretion 0-72 hours, urine + faeces) was 93.0%, the “Urinary elimination 0-72 hours (Urine)” value ([2]; cumulative excretion 0-72 hours, urine, mice in metabolic cages) was 23.8% and the “elimination route (in words)” value ([2]; urinary versus faecal, 0-72 hours) was “faecal route predominates”. It also gave an Effective period (tumour; extrapolated to 131I labelling) of 49.4 h and a Biological period (tumour; from biodistribution data) of 66.3 hours.
